{
  "source": "paper PMC3154745",
  "about": "(Chembiochem : a European journal of chemical biology, 2011)",
  "key": {"wild-type HP1a-CSD": {"target": "T1, wild-type HP1a-CSD (Drosophila melanogaster, UniProt P05205)", "T1 sequence (P05205 131-206)": "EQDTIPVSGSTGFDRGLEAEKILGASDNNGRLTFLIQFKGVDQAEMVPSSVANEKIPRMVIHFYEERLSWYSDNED", "assay": "Fluorescence polarization binding assay, wild-type HP1a-CSD", "details": "for affinity for HP1a CSD compared with the PIWI peptide: in words, Kd not given"}, "[1]": {"target": "HP1a-CSDΔ204 (residues 131–203) (Drosophila melanogaster, UniProt P05205)", "format": "binding", "details": "FP; Δ204 (last three residues removed) vs WT HP1a-CSD"}, "HP1a-CSD E195Q mutant": {"target": "HP1a-CSD E195Q mutant (Drosophila melanogaster, UniProt P05205, E195Q)", "sequence (P05205 131-206 E195Q)": "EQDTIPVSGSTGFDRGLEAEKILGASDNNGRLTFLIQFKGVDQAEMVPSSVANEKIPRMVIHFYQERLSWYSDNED", "format": "binding", "details": "FP; E195Q vs WT HP1a-CSD"}, "[2]": {"target": "HP1a-CSD S199E and S202E double mutant (Drosophila melanogaster, UniProt P05205, S199E/S202E)", "sequence (P05205 131-206 S199E/S202E)": "as the sequence (P05205 131-206 E195Q) above, with Q65E, S69E, S72E counted along it", "format": "binding", "details": "FP; for enhancement of affinity by the phosphorylation mimic, relative to WT CSD: S199E S202E double mutant vs WT HP1a-CSD"}, "HP1a-CSD I191E mutant": {"target": "HP1a-CSD I191E mutant (Drosophila melanogaster, UniProt P05205, I191E)", "sequence (P05205 131-206 I191E)": "as the sequence (P05205 131-206 E195Q) above, with I61E, Q65E counted along it", "assay": "biochemical"}, "HP1a-CSD W200A mutant": {"target": "HP1a-CSD W200A mutant (Drosophila melanogaster, UniProt P05205, W200A)", "sequence (P05205 131-206 W200A)": "as the sequence (P05205 131-206 E195Q) above, with Q65E, W70A counted along it", "assay": "biochemical"}, "HP1β (homodimerization)": {"test_system": "HP1β (homodimerization)", "assay": "Equilibrium analytical ultracentrifugation, HP1β self-association", "details": "same buffer conditions"}},
  "note": "No end group written: not given here.",
  "data": [
    {"substance": "H-PATTSPLVVLSNQLPLNSVAASY-OH [AF10]", "values": [
      {"measurement": "affinity for HP1a CSD compared with the PIWI peptide", "setting": "wild-type HP1a-CSD; FP, WT HP1a-CSD", "result": "quite similar"}
    ]},
    {"substance": "H-SEGRRLYPLLPRISPQTALSIVANDLAESD-OH [CG15356]", "values": [
      {"measurement": "affinity for HP1a CSD compared with the PIWI peptide", "setting": "wild-type HP1a-CSD; FP, WT HP1a-CSD", "result": "quite similar"}
    ]},
    {"substance": "QNISPRKLSVKINRRPYNKWLR [HP2]", "values": [
      {"measurement": "difference in dissociation constant between HP2 and PIWI peptides", "setting": "wild-type HP1a-CSD; FP, WT HP1a-CSD, sub-micromolar to micromolar range", "result": "two-order of magnitude difference"},
      {"measurement": "weaker binding to the Δ204 construct, relative to WT CSD", "setting": "[1]", "result": 16, "unit": "fold"},
      {"measurement": "drop in affinity caused by the E195Q mutation, relative to WT CSD", "setting": "HP1a-CSD E195Q mutant", "result": 10, "unit": "fold"},
      {"measurement": "Hill coefficient of peptide binding", "setting": "[2]; S199E S202E double mutant", "result": "1.7 ± 0.3"},
      {"measurement": "enhancement of affinity by the phosphorylation mimic, relative to WT CSD", "setting": "[2]", "result": 7, "unit": "fold"},
      {"measurement": "Kd", "setting": "HP1a-CSD I191E mutant", "result": "> 400", "unit": "µM"},
      {"measurement": "Kd", "setting": "HP1a-CSD W200A mutant", "result": "> 500", "unit": "µM"}
    ]},
    {"substance": "TSRGSGDLSVKIFRGSSSGDY [PIWI peptide with HP2 pentamer]", "values": [
      {"measurement": "Kd", "setting": "wild-type HP1a-CSD", "result": "21.3 ± 1.3", "unit": "µM"}
    ]},
    {"substance": "TSRGSGDPRVKVFRGSSSGDY [PIWI]", "values": [
      {"measurement": "weaker binding to the Δ204 construct, relative to WT CSD", "setting": "[1]", "result": 3, "unit": "fold"},
      {"measurement": "drop in affinity caused by the E195Q mutation, relative to WT CSD", "setting": "HP1a-CSD E195Q mutant", "result": 5, "unit": "fold"},
      {"measurement": "enhancement of affinity by the phosphorylation mimic, relative to WT CSD", "setting": "[2]", "result": 12, "unit": "fold"},
      {"measurement": "Kd", "setting": "HP1a-CSD I191E mutant", "result": "> 2000", "unit": "µM"},
      {"measurement": "Kd", "setting": "HP1a-CSD W200A mutant", "result": "> 2000", "unit": "µM"}
    ]},
    {"substance": "full length HP1β: recombinant full length mammalian HP1β (human and mouse sequences identical)", "values": [
      {"measurement": "dimerization tighter than that of HP1a", "setting": "HP1β (homodimerization)", "result": 3, "unit": "times"}
    ]}
  ]
}
